Here are results for one molecule from publication PMC2727864 (Molecular cancer therapeutics, 2008).

The nature of series [1]: Metabolic stability, incubation with HT-29 cells in DMEM at 37°C. The note with it: human. The class given is in vitro ADME.
Series [2] concerns phospho-Ser473 AKT. Nature of the series: Inhibition of phospho-Ser473 AKT by Western analysis in NIH3T3 cells. The class given is cell-based. The settings on record: Mus musculus, NIH3T3, read-out: AKT inhibition (IC50) NIH3T3.
The nature of series [3]: LogP. The series is classed as physicochemical.
The nature of series [4]: Toxicity studies in mice. The series is classed as in vivo, mouse.
Series [5] concerns HT-29 colon cancer xenografts. As to the kind of experiment: Anti-tumor activity, HT-29 colon cancer xenografts in scid mice. The settings on record: orally daily for 5 days at 250 mg/kg. The series is classed as in vivo, mouse.
A short description of series [6]: Pharmacokinetic study, plasma concentration in mice. The class given is in vivo, mouse.
In series [7] the test system is phospho-(pan)-PKC. Nature of the series: Phospho-. The series is classed as cell-based, human. The settings on record: HT-29, 2 hr, EGF stimulated, Western blot. For orientation: Immunoblotting shows a protein as a band on a membrane.
Series [8] can be described thus: Solubility. The series is classed as physicochemical.
The subject of series [9] is phospho-Ser473 AKT. As to the kind of experiment: Inhibition of phospho-Ser473 AKT by Western analysis in HT-29 cells. The class given is cell-based, human.
Series [10] deals with tumor phospho-Ser473 AKT. Nature of the series: Pharmacodynamic study, tumor phospho-Ser473 AKT in HT-29 xenografts. The class given is in vivo, mouse.
For series [11], the system named is phospho-Ser241 PDK1. As to the kind of experiment: Phospho-Ser241 PDK1 Western analysis in HT-29 cells. The note with it: HT-29, 2 hr, EGF stimulated, Western blot. The series is classed as cell-based, human.
Setting [12] is: five daily doses at 250 mg/kg ip.
Setting [13] is: 24 hr after a single dose 250 mg/kg.

Molecules are shown by their SMILES. Values joined by “and” are separate entries in the source; they are usually repeats but may differ in a detail not shown here. Equal entries are not always repeated.

By half-life is commonly meant the time needed for the level to fall by half in the phase considered. Lower therefore signals fast loss. Usually IC50 stands for the concentration at which inhibition is half-maximal. As usually defined, the logP is a log measure of how a compound divides between an organic and an aqueous phase. Lower therefore signals a more hydrophilic compound. In the case of `CC1=NN(C(=O)c2ccc(Cl)cc2)C(=O)C1N=Nc1ccc(S(=O)(=O)Nc2ncccn2)cc1` (centres unmarked) [Compound 1, 4-[1-(4-Chlorobenzoyl)-3-methyl-5-oxo-4,5-dihydro-1H-pyrazol-4-ylazo]-N-pyrimidin-2-yl-benzenesulfonamide], in series [1], the half-life turned out to be 1.03 h. Besides, the IC50 in [2] is 4 µM. Also, the logP in series [3] worked out at 2.1. Also, in series [4] (setting [12]), the “body weight, blood lymphocyte, red blood cell and platelet count, AST, ALT” value is on record as “no change”; the neutropenia entry is recorded as “moderate neutropenia”. Besides, the “toxicity, single dose” value in [4] (single dose up to 250 mg/kg, ip, mice) is “no toxicity”. Also, in [5], the anti-tumor activity entry is given as “no activity”. The “peak plasma concentration, ip” value in series [6] (single dose 250 mg/kg ip) was 1.4 µM. The “peak plasma concentration, oral” value in series [6] (single dose 250 mg/kg oral) amounted to 0.6 µM. Further, in series [7], the “phosphorylation of PKC” value is reported as “decreased”. The “solubility” value in series [8] was “very insoluble and 17.9 µM”. Also, in [9] (HT-29, 2 hr, EGF stimulated, Western blot), the “AKT phosphorylation, concentration response” value is given as “decreased in a concentration-dependent manner”. In addition, the IC50 in series [9] (Homo sapiens, HT-29, read-out: AKT inhibition (IC50) HT-29) amounted to 13 µM. Also, the “inhibition of tumor phospho-Ser473 AKT at 4 hr” value in series [10] (4 hr after a single dose 250 mg/kg) is “small inhibition”. For the same molecule, in [10] (setting [13]), the “inhibition of tumor phospho-Ser473 AKT at 24 hr” value is “no inhibition” and the “total AKT in tumor compared to actin loading control” value is recorded as “significant decrease”. Further, the “phosphorylation of PDK” value in series [11] is “decreased”.
